From a melting point compilation (Tetko et al.; mined from patent text by program, amines drawn as free bases though some values may be those of a salt) come the findings set out here.

A word on the melting point: it is the temperature, or range, at which the solid turns liquid. For the molecule `O=C1NC(=O)C2(CCOC2)N1` (stereo unspecified), the melting point was in the range of 202 to 204 °C.

`CCOC(=O)c1c(Cn2cncn2)nc2sc3c(c2c1-c1cccc(OC)c1OC)CCCN3C(=O)OCc1ccccc1` displayed a melting point of 184 to 185 °C.

For the molecule `N=c1nc(N)c2nc[nH]c2c(N)n1`, the melting point is more than 200 °C.

Consider `CC1C(=O)Oc2c(Oc3ccccc3F)cccc21` (stereo unspecified), for which the melting point lay within 70 to 71.5 °C.

In the case of `O=C(O)COc1cccc(CCCOC(c2ccccc2)c2ccccc2)c1`, the melting point was 110 to 112 °C.

Consider `CC1CCN(C(=O)[C@H](CCCNc2ncccn2)NS(=O)(=O)c2ccc3ccccc3c2)CC1`, for which the melting point was in the range of 98 to 100 °C.

In the case of `CCOC(=O)C1C(=O)NC(=O)C12C(=O)N(Cc1ccc(Cl)c(Cl)c1)c1ccccc12` (stereo unspecified), the melting point was in the range of 60 to 85 °C.

The molecule `Cc1cc(C)nc(NC(=O)NS(=O)(=O)c2ccccc2O)n1` gave a melting point of 180 °C.

For the molecule `CCC1c2ncn(C)c2CCN1C(=S)NC(C)C` (stereo unspecified), the melting point was 186 °C.

In turn, `C/C(O)=C(\C#N)C(=O)Sc1ccc(Cl)cc1` registered a melting point of 91 to 94 °C.

For `CN(C)CCc1c[nH]c2cc(N(S(=O)(=O)c3cc(Cl)cc(Cl)c3)S(=O)(=O)c3cc(Cl)cc(Cl)c3)ccc12`, the melting point is 103 to 107 °C.

On to `Cn1c(-c2cccs2)n[nH]c1=O`, for which the melting point lay in the range of 183 to 185 °C.

`CCOCc1cc(COc2cc(C)nc(C)c2OC)ccc1-c1ccccc1S(=O)(=O)Nc1noc(C)c1C` displayed a melting point of 78 to 82 °C.

`Oc1ncc(-c2ccccc2Cl)cn1` yielded a melting point of 232 to 233 °C.

For `O=C(Nc1ccc(-n2nc(C(F)(F)F)cc2C(F)(F)F)cc1)c1c(Cl)ccc([N+](=O)[O-])c1Cl`, the melting point is 160 to 161 °C.

`COc1cc(C)c2c(Oc3cccc(C(F)(F)F)c3)c(OC)cc(NC(C)CCC[N+](=O)[O-])c2n1` (stereo unspecified) yielded a melting point of 84.8 to 85.1 °C.

On to `COC(=O)[C@H]1C=C(c2ccc(Br)cc2)OC(=O)[C@H]1Cc1ccccc1`, for which the melting point was in the range of 139 to 141 °C.

The molecule `COC(=O)NCc1ccc2ccn(C3CCN(CCc4ccc(F)cc4)CC3)c2c1` displayed a melting point of 117 to 118 °C.

For `COc1cccc(CCC(=O)c2c[nH]cn2)c1OC`, the melting point lay within 120 to 125 °C.

`CN(C)C=NC(=S)NC1CCN(C(=O)OC(C)(C)C)CC1` returned a melting point of 170 °C.

`Cc1cc(Br)ccc1C(=O)N=CN(C)C` showed a melting point of 87 to 89 °C.

With `N#CCc1c(Cl)nc(-c2ccccc2)n1Cc1ccccc1`, the melting point is 121 to 122 °C.

`COCCNc1cc(Sc2ccc(Cl)cc2)nc(-c2ccc(OC)cc2)n1` had a melting point of 117 to 118 °C.

`CCCCCCCCCCCCCCCCOC(=O)CCCCCCCCCCCCCCC` yielded a melting point of 75 °C.

`O=C1CC(c2ccc([N+](=O)[O-])cc2)=Nc2cccc(C(F)(F)F)c21` yielded a melting point of more than 260 °C.

`CCCc1cc(Cl)c2oc(C(=O)O)c(C)c2c1O`: the melting point was in the range of 200 to 203 °C.

For `COC(=O)C(C)c1noc2cc(F)c(N3C(=O)C(C)=C(C)C3=O)cc12` (stereo unspecified), the melting point lay within 106 to 107 °C.

With `Cc1cc(C)c(N2CCCCC2=O)cc1NS(=O)(=O)C(F)(F)F`, the melting point lay within 260 to 266 °C.

In turn, `Cc1cccc(-n2nc(C)cc2N)n1` displayed a melting point of 149 to 150 °C.

`O=C(C=Cc1ccccc1)NNC(=O)c1ccccc1O` had a melting point of 271 °C.

Consider `O=C(Nc1ccc(-c2ccccc2)s1)c1ccccc1`, for which the melting point was 202 to 203 °C.

In turn, `CN(C)C1Cc2cc(Br)cc([N+](=O)[O-])c2NC1=O` (stereo unspecified) returned a melting point of 162 to 165 °C.

Turning to `CC(C)OC(=O)c1cc(-n2c(=O)n3n(c2=S)COCC3)c(F)cc1Cl`, the melting point is 67 to 69 °C.

In turn, `CC(C)(C)c1ccc(O)c(C=O)c1` displayed a melting point of 81 °C.

`Cc1cc(OCc2oc(-c3ccc(C(F)(F)F)cc3)nc2C)ccc1OCC(=O)O` showed a melting point of 136 to 137 °C.

As for `CS(=O)(=O)NC(=O)CCCC[C@H]1CCSS1`, the melting point was in the range of 71 to 73 °C.
